In US8426623B2, “Surface modified nanoparticle and preparation method thereof” (National Tsing Hua University, priority 2010, dated 2013):

Test: Anti-oxidative activity of phenol compound (H2O2 scavenging)
Conditions: substance/H2O2=1, reacted with H2O2 before H2O2 was measured; versus unreacted H2O2 control; FIG. 1
Description: H2O2 was the tested ROS in testing anti-oxidative activity of HPPDA. There are 3 sets in this experiment, including H2O2, HPPDA/H2O2 and ascorbic acid/H2O2, where HPPDA/H2O2=1, ascorbic acid/H2O2=1, and HPPDA, ascorbic were respectively reacted with H2O2 before H2O2 was measured. The control is represented with H2O2 without undergoing any reaction.
Referring to FIG. 1, as the comparison result with control has shown, the concentration of H2O2 was lowered after reacted with ascorbic acid and HPPDA (# for significant difference, p<0.01). Particularly, H2O2 concentration was lowered by ascorbic acid with 30 μM and lowered by HPPDA with 40 μM; this means better H2O2 absorption by HPPDA than ascorbic acid.

Row | SMILES | H2O2 concentration lowered by
1 | O=C(O)/C=C/C=C/c1ccc(O)cc1 [HPPDA, (2E,4E)-5-(4-hydroxyphenyl)penta-2,4-dienoic acid] | 40 µM
2 | O=C1O[C@H]([C@@H](O)CO)C(O)=C1O [ascorbic acid] | 30 µM
